From ChEMBL document CHEMBL1154027, “Imidazopyridine derivatives as potent and selective Polo-like kinase (PLK) inhibitors” (Bioorg Med Chem Lett, 2009)

Tests used:
[1] = Lipophilicity, Log D of the compound; assay type: physicochemical; conditions: octanol/water
[2] = Plasma concentration in F344/NJcl-rnu nude rat at 0.45 mg/kg after 48 hrs; assay type: ADME, organism-based; design: dose 0.45 mg/kg
[3] = Plasma concentration in F344/NJcl-rnu nude rat at 0.60 mg/kg after 48 hrs; assay type: ADME, organism-based; design: dose 0.6 mg/kg; conditions: 0.6 mg/kg

| Structure (SMILES) | logD [1] | concentration at 48 h [2] | concentration at 48 h [3] |
| --- | --- | --- | --- |
| CC(Oc1cc(-c2cnc3cc(CO)ccn23)sc1C(N)=O)c1ccccc1Cl (racemic) | 4.1 | – | – |
| NC(=O)c1sc(-c2cnc3ccccn23)cc1OCc1ccccc1Cl | 4.1 | – | – |
| NC(=O)c1sc(-c2cnc3ccccn23)cc1OCc1ccccc1C(F)(F)F | 4.2 | – | – |
| C[C@@H](Oc1cc(-c2cnc3ccccn23)sc1C(N)=O)c1ccc(CN2CCS(=O)(=O)CC2)cc1Cl | 3.2 | – | – |
| C[C@@H](Oc1cc(-c2cnc3ccccn23)sc1C(N)=O)c1ccc(CNC(C)(C)C)cc1C(F)F | 2.6 | – | – |
| C[C@@H](Oc1cc(-c2cnc3ccc(CO)cn23)sc1C(N)=O)c1ccccc1Cl | 4.2 | – | – |
| C[C@@H](Oc1cc(-c2cnc3ccccn23)sc1C(N)=O)c1ccc(CNC(C)(C)C)cc1F | 2.2 | – | – |
| C[C@@H](Oc1cc(-c2cnc3ccccn23)sc1C(N)=O)c1ccc(CN2CCC(F)CC2)cc1Cl | 3.7 | – | – |
| C[C@@H](Oc1cc(-c2cnc3ccccn23)sc1C(N)=O)c1ccc(CO)cc1Cl | 3.8 | – | – |
| C[C@@H](Oc1cc(-c2cnc3ccccn23)sc1C(N)=O)c1ccc(CN2CCN(C)CC2)cc1Cl | 2.8 | – | – |
| CCNCc1ccc([C@@H](C)Oc2cc(-c3cnc4ccccn34)sc2C(N)=O)c(Cl)c1 | 2.8 | – | – |
| C[C@@H](Oc1cc(-c2cnc3ccccn23)sc1C(N)=O)c1ccccc1CO | 3.2 | – | – |
| C[C@@H](Oc1cc(-c2cnc3ccccn23)sc1C(N)=O)c1ccc(CNCCCO)cc1Cl | 2.1 | – | – |
| CNCc1ccc([C@@H](C)Oc2cc(-c3cnc4ccccn34)sc2C(N)=O)c(Cl)c1 | 1.9 | – | – |
| C[C@@H](Oc1cc(-c2cnc3ccccn23)sc1C(N)=O)c1ccc(CNC(C)(C)C)cc1Cl | 2.9 | – | – |
| C[C@@H](Oc1cc(-c2cnc3ccccn23)sc1C(N)=O)c1ccc(CN2CCNC(=O)C2)cc1Cl | 2.8 | – | – |
| C[C@@H](Oc1cc(-c2cnc3ccccn23)sc1C(N)=O)c1ccc(CN2CCC(O)C2)cc1Cl (stereo partly specified) | 3.3 | – | – |
| C[C@@H](Oc1cc(-c2cnc3ccccn23)sc1C(N)=O)c1ccc(CN2CCC(O)CC2)cc1Cl | 3.3 | – | – |
| C[C@@H](Oc1cc(-c2cnc3ccccn23)sc1C(N)=O)c1ccc(CNC2CCCC2)cc1Cl | 3.5 | – | – |
| C[C@@H](Oc1cc(-c2cnc3ccccn23)sc1C(N)=O)c1ccc(CN(C)C)cc1Cl | 2.9 | – | – |
| CC(Oc1cc(-c2cnc3ccccn23)sc1C(N)=O)c1cc(CO)ccc1Cl (stereo unspecified) | 3.7 | – | – |
| C[C@@H](Oc1cc(-c2cnc3ccccn23)sc1C(N)=O)c1ccc(CNCCO)cc1Cl | 2.4 | – | – |
| C[C@@H](Oc1cc(-c2cnc3ccccn23)sc1C(N)=O)c1ccccc1Cl | 4.8 | – | – |
| C[C@@H](Oc1cc(-c2cnc3ccccn23)sc1C(N)=O)c1ccc(CNC(C)(C)C)cc1OC(F)F | 2.7 | 50 nM | 80 nM |
| C[C@@H](Oc1cc(-c2cnc3ccccn23)sc1C(N)=O)c1ccc(CNC(C)(C)CO)cc1Cl | 2.9 | – | – |
| NC(=O)c1sc(-c2cnn3ccccc23)cc1OCc1ccccc1C(F)(F)F | 4.8 | – | – |
| NC(=O)c1sc(-n2cnc3ccccc32)cc1OCc1ccccc1C(F)(F)F | 4.6 | – | – |
| CC(C)NCc1ccc([C@@H](C)Oc2cc(-c3cnc4ccccn34)sc2C(N)=O)c(Cl)c1 | 2.3 | – | – |
| C[C@@H](Oc1cc(-c2cnc3ccccn23)sc1C(N)=O)c1ccc(CNC2CC2)cc1Cl | 3.6 | – | – |
